pKi: −log10 of the molar value.

53 compounds from US6838479B2, “Amidine inhibitors of serine proteases” (Genentech, Inc., priority 2000, dated 2005) can be followed below.

The target of assay [1] is tissue factor/factor VIIa (Homo sapiens, UniProt P08709). In words: Tissue Factor/Factor VIIa antagonist assay (chromogenic, Ki). It counts as biochemical. The settings on record: 10 nM VIIa, 30 nM TF, Chromozym-tPA 1.33 mM; read-out: binding affinity to serine proteases: VIIa. On the procedure:
Tissue Factor/Factor VIIa Antagonist Assay
This procedure is used to determine the constant of inhibition (Ki) for a sample compound of the invention.
Procedure • 1. Prepare a solution of 2 μg/mL (90 nM) tissue factor and 1.5 μg/mL (30 nM) factor VIIa in assay buffer with CaCl2. • 2. Incubate for 15 minutes at room temperature. • 3. Add 50 μL sample to each well. • 4. Add 50 μL tissue factor/factor VIIa solution to each well. • 5. Incubate for 15 minutes at room temperature with gentle agitation. • 6. Add 50 μL substrate to each well. • 7. Agitate plate for 20-25 sec. • 8. Monitor absorbance at 405 nm every 10 see for a total of 5 minutes at room temperature. • 9. Calculate Vmax over 10 points.

Assay [2] addresses T1, human Factor Xa (Homo sapiens, UniProt P00742).
T1 construct: This complex converts factor X to Xa
In words: Factor Xa assay (chromogenic, Ki). The settings on record: 3.3 nM Xa, S-2222 0.5 mM; read-out: binding affinity to serine proteases: Xa. The assay is classed as biochemical. The protocol: Factor Xa, Thrombin, and Plasma Kallikrein Assays
These procedures are used to determine the constant of inhibition (Ki) for a sample compound of the invention.
Procedure • 1. Add 50 μL sample to each well. • 2. Add 50 μL appropriately diluted coagulation factor to each well. • 3. Incubate for 5 minutes at room temperature with gentle agitation. • 4. Add 50 μL appropriately diluted substrate to each well. • 5. Agitate plate for 20-25 sec. • 6. Monitor absorbance at 405 nm every 10 sec for a total of 5 minutes at room temperature. • 7. Calculate Vmax over 10 points.

T1 sequence (P00742 235-488 limits assumed): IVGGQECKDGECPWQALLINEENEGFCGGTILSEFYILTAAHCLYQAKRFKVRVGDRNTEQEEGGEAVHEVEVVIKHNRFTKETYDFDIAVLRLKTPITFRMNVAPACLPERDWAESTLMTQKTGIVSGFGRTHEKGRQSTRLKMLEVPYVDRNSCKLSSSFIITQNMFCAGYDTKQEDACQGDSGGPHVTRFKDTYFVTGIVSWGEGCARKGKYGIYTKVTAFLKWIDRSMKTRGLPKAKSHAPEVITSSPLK
T1 sequence (P00742 41-179 limits assumed): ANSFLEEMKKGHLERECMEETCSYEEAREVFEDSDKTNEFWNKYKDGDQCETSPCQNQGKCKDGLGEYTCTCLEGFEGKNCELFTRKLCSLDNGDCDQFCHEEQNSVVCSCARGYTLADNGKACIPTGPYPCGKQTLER
Sequence of tissue factor/factor VIIa (P08709 213-466 limits assumed): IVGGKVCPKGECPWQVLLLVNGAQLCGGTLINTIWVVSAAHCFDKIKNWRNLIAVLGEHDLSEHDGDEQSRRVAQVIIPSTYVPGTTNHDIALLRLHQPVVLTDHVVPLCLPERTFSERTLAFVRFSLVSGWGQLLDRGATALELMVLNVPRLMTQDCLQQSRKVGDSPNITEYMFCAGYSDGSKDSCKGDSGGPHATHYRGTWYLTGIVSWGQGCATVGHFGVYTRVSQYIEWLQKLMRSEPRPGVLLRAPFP
Sequence of tissue factor/factor VIIa (P08709 61-212 limits assumed): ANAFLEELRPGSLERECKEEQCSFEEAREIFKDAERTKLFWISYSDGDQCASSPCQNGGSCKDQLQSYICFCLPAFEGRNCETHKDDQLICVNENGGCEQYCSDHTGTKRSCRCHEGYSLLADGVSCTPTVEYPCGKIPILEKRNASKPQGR
Sequence of tissue factor/factor VIIa (P13726 33-251 partner limits assumed): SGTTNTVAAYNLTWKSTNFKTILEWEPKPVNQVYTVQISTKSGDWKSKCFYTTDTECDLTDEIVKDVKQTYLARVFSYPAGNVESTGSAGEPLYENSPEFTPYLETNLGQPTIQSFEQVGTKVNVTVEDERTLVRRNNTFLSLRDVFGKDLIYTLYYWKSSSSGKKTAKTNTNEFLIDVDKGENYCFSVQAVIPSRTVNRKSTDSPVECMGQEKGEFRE

As to `Cc1cccc(CNC(=O)[C@@H]2C[C@@H](Oc3cccc(C(=N)N)c3)CN2)c1` [compound 13], the values for the pKi in assay [1] and in assay [2] were at most 3.41 and 5.21, respectively.

For `CC(C)CCNC(=O)[C@@H]1C[C@@H](Oc2cccc(C(=N)N)c2)CN1` [compound 54], the pKi was at most 3.41 in assay [1] and 4.42 in assay [2].

For the compound `N=C(N)c1cccc(O[C@@H]2C[C@@H](C(=O)O)N(S(=O)(=O)c3ccccc3)C2)c1` [compound 82], the values for the pKi in assay [1] and in assay [2] were below 3.71 and below 3.76, respectively.

Regarding `C=CCOC(=O)[C@@H]1C[C@@H](Oc2cccc(C(=N)N)c2)CN1S(=O)(=O)c1ccccc1` [compound 74], the pKi in assay [1] was below 3.71; in assay [2] it was 3.85.

`N=C(N)c1cccc(O[C@H]2CN[C@H](C(=O)N3CCCCC3CO)C2)c1` (some centres unmarked) [compound 68]: the pKi was at most 3.41 in assay [1] and 4.05 in assay [2].

As for `N=C(N)c1ccc(NC(=O)[C@@H]2C[C@@H](Oc3cccc(C(=N)N)c3)CN2)cc1` [compound 2], the pKi is 4.19 in assay [1] and 5.94 in assay [2].

On to `N=C(N)c1cccc(O[C@H]2CN[C@H](C(=O)N3CCCC3)C2)c1` [compound 38], for which the results for the pKi in assay [1] and in assay [2] were 3.89 and 4.66, respectively.

With `N=C(N)c1cccc(O[C@@H]2C[C@@H](C(=O)O)N(Cc3ccccc3)C2)c1` [compound 70], the figures for the pKi in assay [1] and in assay [2] were 3.81 and 3.98, respectively.

For `N=C(N)c1cccc(O[C@H]2CN[C@H](C(=O)NCc3cccnc3)C2)c1` [compound 58], the pKi was at most 3.41 in assay [1] and 4.29 in assay [2].

With `N=C(N)c1cccc(O[C@H]2CN[C@H](C(=O)NCc3ccncc3)C2)c1` [compound 71], the values for the pKi in assay [1] and in assay [2] were at most 3.41 and 3.98, respectively.

On to `N=C(N)c1cccc(O[C@H]2CN[C@H](C(=O)N3CCC(O)CC3)C2)c1` [compound 57], for which the pKi is 3.51 in assay [1] and 4.31 in assay [2].

For the compound `COc1ccc(CNC(=O)[C@@H]2C[C@@H](Oc3cccc(C(=N)N)c3)CN2S(C)(=O)=O)cc1` [compound 48], the pKi in assay [1] was below 3.71; in assay [2] it was 4.47.

Take `C[C@@H](NC(=O)[C@@H]1C[C@@H](Oc2cccc(C(=N)N)c2)CN1)c1ccccc1` [compound 26]: the pKi in assay [1] was 3.85.

For the compound `C=CCNC(=O)[C@@H]1C[C@@H](Oc2cccc(C(=N)N)c2)CN1` [compound 31], the pKi in assay [1] is at most 3.41; in assay [2] it was 4.82.

Regarding `N=C(N)c1cccc(O[C@H]2CN[C@H](C(=O)NCc3ccccc3)C2)c1` [compound 37], the pKi in assay [1] was 3.51; in assay [2] it was 4.66.

In the case of `N=C(N)c1cccc(O[C@H]2CN[C@H](C(=O)Nc3ccc4ccccc4c3)C2)c1` [compound 29], the pKi in assay [1] is 3.93; in assay [2], 4.85.

With `Cc1ccc(CNC(=O)[C@@H]2C[C@@H](Oc3cccc(C(=N)N)c3)CN2)cc1` [compound 9], the pKi in assay [1] is at most 3.41; in assay [2], 5.29.

On to `N=C(N)c1cccc(O[C@H]2CN[C@H](C(=O)NCc3ccc4ccccc4c3)C2)c1` [compound 20], for which the pKi in assay [1] is 3.63; in assay [2], 5.04.

Turning to `Cc1ccccc1CNC(=O)[C@@H]1C[C@@H](Oc2cccc(C(=N)N)c2)CN1` [compound 39], the pKi was at most 3.41 in assay [1] and 4.64 in assay [2].

For `C[C@H](NC(=O)[C@@H]1C[C@@H](Oc2cccc(C(=N)N)c2)CN1)C(=O)O` [compound 75], the pKi in assay [1] is at most 3.41; in assay [2], 3.85.

For the compound `N=C(N)c1cccc(O[C@H]2CN[C@H](C(=O)N3CCNCC3)C2)c1` [compound 63], the pKi in assay [1] was at most 3.41; in assay [2], 4.15.

`CC(C)[C@@H](NC(=O)[C@@H]1C[C@@H](Oc2cccc(C(=N)N)c2)CN1)C(=O)O` [compound 72]: the pKi was at most 3.41 in assay [1] and 3.88 in assay [2].

Take `CCCNC(=O)[C@@H]1C[C@@H](Oc2cccc(C(=N)N)c2)CN1` [compound 49]: the values for the pKi in assay [1] and in assay [2] were at most 3.41 and 4.47, respectively.

For the compound `COc1ccc(CNC(=O)[C@@H]2C[C@@H](Oc3cccc(C(=N)N)c3)CN2C(C)=O)cc1` [compound 23], the pKi in assay [1] is below 3.71; in assay [2] it was 4.92.

On to `CS(=O)(=O)N1C[C@H](Oc2cccc(C(=N)N)c2)C[C@H]1C(=O)O` [compound 81], for which the pKi in assay [1] is below 3.71; in assay [2], below 3.76.

Consider `N=C(N)c1cccc(O[C@H]2CN[C@H](C(=O)N3CCCC(C(N)=O)C3)C2)c1` (some centres unmarked) [compound 61], for which, in assay [2], the pKi is 4.21.

As to `COc1ccc(NC(=O)[C@@H]2C[C@@H](Oc3cccc(C(=N)N)c3)CN2)cc1` [compound 64], the pKi is 3.56 in assay [1] and 4.15 in assay [2].

With `Cc1ccccc1NC(=O)[C@@H]1C[C@@H](Oc2cccc(C(=N)N)c2)CN1` [compound 44], the pKi in assay [1] is 3.93; in assay [2], 4.59.

Take `N=C(N)c1cccc(O[C@H]2CN[C@H](C(=O)Nc3ccc(F)cc3)C2)c1` [compound 65]: the values for the pKi in assay [1] and in assay [2] were 4.51 and 4.15, respectively.

As to `N=C(N)c1cccc(O[C@H]2CN[C@H](C(=O)N3CCCCC3CCO)C2)c1` (some centres unmarked) [compound 62], the pKi in assay [1] is below 3.41; in assay [2], 4.19.

On to `COc1ccc(CNC(=O)[C@@H]2C[C@@H](Oc3cccc(C(=N)N)c3)CN2)cc1` [compound 8], for which the pKi in assay [1] was at most 3.41; in assay [2], 5.48.

For the compound `N=C(N)c1cccc(O[C@H]2CN[C@H](C(=O)N[C@@H](Cc3ccccc3)C(=O)O)C2)c1` [compound 55], the pKi in assay [1] was 3.56; in assay [2] it was 4.35.

As to `C[C@H](NC(=O)[C@@H]1C[C@@H](Oc2cccc(C(=N)N)c2)CN1)c1ccccc1` [compound 46], the pKi in assay [1] is 3.81; in assay [2], 4.57.

Turning to `N=C(N)c1cccc(O[C@H]2CN[C@H](C(=O)NCC(=O)O)C2)c1` [compound 77], in assay [1], the pKi is below 3.41.

`N=C(N)c1cccc(O[C@H]2CN[C@H](C(=O)Nc3ccc(-c4ccccc4)cc3)C2)c1` [compound 28]: the pKi in assay [1] was at most 3.41; in assay [2], 4.85.

`N=C(N)c1cccc(O[C@H]2CN[C@H](C(=O)NC3CCc4ccccc43)C2)c1` (some centres unmarked) [compound 25]: the results for the pKi in assay [1] and in assay [2] were 3.81 and 4.88, respectively.

On to `N=C(N)c1cccc(O[C@H]2CN[C@H](C(=O)NCCc3ccccc3)C2)c1` [compound 53], for which the pKi is 3.88 in assay [1] and 4.43 in assay [2].

For the compound `N=C(N)c1cccc(O[C@H]2CN[C@H](C(=O)NCc3cccc(Cl)c3)C2)c1` [compound 19], the pKi in assay [1] was 3.51; in assay [2], 5.05.

`N=C(N)c1cccc(O[C@H]2CN[C@H](C(=O)NCCC3CNc4ccccc43)C2)c1` (some centres unmarked) [compound 12]: the pKi was 3.81 in assay [1] and 5.22 in assay [2].

As for `N=C(N)c1cccc(O[C@H]2CN[C@H](C(=O)NCCc3ccccc3)C2)c1` [compound 41], the pKi in assay [1] was 3.73; in assay [2], 4.62.

For the compound `N=C(N)c1cccc(O[C@H]2CN[C@H](C(=O)N3CCCC(CO)C3)C2)c1` (some centres unmarked) [compound 69], the pKi was 3.93 in assay [1] and 4.04 in assay [2].

In the case of `N=C(N)c1cccc(O[C@H]2CN[C@H](C(=O)NCc3ccccn3)C2)c1` [compound 47], the figures for the pKi in assay [1] and in assay [2] were at most 3.41 and 4.50, respectively.

Turning to `N=C(N)c1cccc(O[C@H]2CN[C@H](C(=O)N3CCc4ccccc4C3)C2)c1` [compound 10], the values for the pKi in assay [1] and in assay [2] were 4.01 and 5.27, respectively.

Consider `N=C(N)c1cccc(O[C@H]2CN[C@H](C(=O)Nc3cccc(C(F)(F)F)c3)C2)c1` [compound 45], for which the pKi is 3.82 in assay [1] and 4.58 in assay [2].

Turning to `N=C(N)c1cccc(O[C@H]2CN[C@H](C(=O)NCc3ccc(N)cc3)C2)c1` [compound 30], the pKi is 3.51 in assay [1] and 4.82 in assay [2].

With `CC(C)NC(=O)[C@@H]1C[C@@H](Oc2cccc(C(=N)N)c2)CN1` [compound 59], the results for the pKi in assay [1] and in assay [2] were at most 3.41 and 4.22, respectively.

In the case of `C=CCOC(=O)[C@@H]1C[C@@H](Oc2cccc(C(=N)N)c2)CN1S(C)(=O)=O` [compound 78], in assay [1], the pKi was below 3.71.

On to `N=C(N)c1cccc(O[C@H]2CN[C@H](C(=O)N3CCCC(C(=O)O)C3)C2)c1` (some centres unmarked) [compound 67], for which the results for the pKi in assay [1] and in assay [2] were at most 3.41 and 4.06, respectively.

`N#Cc1ccccc1NC(=O)[C@@H]1C[C@@H](Oc2cccc(C(=N)N)c2)CN1` [compound 42]: the pKi in assay [1] is 4.05; in assay [2] it was 4.61.

For `N=C(N)c1cccc(O[C@H]2CN[C@H](C(=O)Nc3ccccc3C(F)(F)F)C2)c1` [compound 43], the figures for the pKi in assay [1] and in assay [2] were 3.81 and 4.61, respectively.

Regarding `N=C(N)c1cccc(O[C@H]2CN[C@H](C(=O)N3CCCCC3)C2)c1` [compound 35], the pKi is 4.03 in assay [1] and 4.70 in assay [2].

On to `COc1ccc(CNC(=O)[C@@H]2C[C@@H](Oc3cccc(C(=N)N)c3)CN2C(=O)c2ccccc2)cc1` [compound 56], for which the pKi was below 3.71 in assay [1] and 4.33 in assay [2].

As to `N=C(N)c1cccc(O[C@H]2CN[C@H](C(=O)NC3CCCCC3)C2)c1` [compound 51], the pKi in assay [1] was 3.63.
